According to the supplement of paper PMC12463676, “Small-molecule dissolution of stress granules by redox modulation benefits ALS models” (Nature Chemical Biology, 2025):

How the values were obtained:
[1] = compound: O=[As]([O-])(O)O.[K+] [potassium arsenate]; test: thermal stability z-score vs DMSO; higher = more thermally stabilized by treatment; details: HeLa; arsenate concentration 1 mM
Experimental: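 Cellular thermal proteome profiling in HeLa cells treated with 1 mM arsenate for 1 h (DMSO pretreatment), heated to ten temperatures (37-66.3 °C). Soluble protein was quantified by TMT mass spectrometry relative to DMSO controls; the thermal stability score was transformed to a z-score; mean of n = 3 experiments.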

[2] = compound: NC(=O)CCCCC1CCSS1 [lipoamide]; test: as above; details: HeLa, lipoamide concentration 100 µM
Experimental: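 Cellular thermal proteome profiling in HeLa cells. Cells were treated with 100 µM lipoamide for 1 h, with or without 1 mM arsenate for a further 1 h, then heated to ten temperatures (37-66.3 °C), and soluble protein was quantified by TMT mass spectrometry relative to 0.1% DMSO controls. The thermal stability score (sum of log2 fold changes minus the abundance score) was transformed to a z-score; mean of n = 3 experiments.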

[3] = arsenate co-treatment: 1 mM arsenate 1 h
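Further: each temperature applied for 3 min, abundance score taken as mean log2 fold change at the two lowest temperatures, z-score obtained by mean subtraction and division by SD.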

UniProt P09601, sequence (P09601 whole entry): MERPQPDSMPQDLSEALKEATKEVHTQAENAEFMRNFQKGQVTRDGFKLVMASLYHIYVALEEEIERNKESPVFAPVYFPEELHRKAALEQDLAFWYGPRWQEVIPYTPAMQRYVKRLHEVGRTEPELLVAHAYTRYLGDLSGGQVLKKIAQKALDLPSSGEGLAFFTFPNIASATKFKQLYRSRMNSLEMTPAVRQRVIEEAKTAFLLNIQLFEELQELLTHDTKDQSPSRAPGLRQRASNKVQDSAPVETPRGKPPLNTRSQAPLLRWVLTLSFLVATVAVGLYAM
UniProt P17096, sequence (P17096 whole entry): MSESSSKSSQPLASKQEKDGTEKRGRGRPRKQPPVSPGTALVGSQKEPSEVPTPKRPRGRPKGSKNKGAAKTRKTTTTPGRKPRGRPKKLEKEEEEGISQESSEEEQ
UniProt P52597, sequence (P52597 whole entry): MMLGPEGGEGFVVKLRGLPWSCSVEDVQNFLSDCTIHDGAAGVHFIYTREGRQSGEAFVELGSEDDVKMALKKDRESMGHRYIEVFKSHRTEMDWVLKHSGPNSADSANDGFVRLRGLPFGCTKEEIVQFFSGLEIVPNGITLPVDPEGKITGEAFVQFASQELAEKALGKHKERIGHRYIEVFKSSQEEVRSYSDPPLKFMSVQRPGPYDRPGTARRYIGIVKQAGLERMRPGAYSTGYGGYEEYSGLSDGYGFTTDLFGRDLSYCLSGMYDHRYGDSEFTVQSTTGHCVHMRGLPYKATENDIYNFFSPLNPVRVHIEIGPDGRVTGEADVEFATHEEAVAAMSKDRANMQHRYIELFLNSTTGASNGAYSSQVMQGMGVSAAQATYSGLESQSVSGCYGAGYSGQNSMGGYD
UniProt P09651, sequence (P09651 whole entry): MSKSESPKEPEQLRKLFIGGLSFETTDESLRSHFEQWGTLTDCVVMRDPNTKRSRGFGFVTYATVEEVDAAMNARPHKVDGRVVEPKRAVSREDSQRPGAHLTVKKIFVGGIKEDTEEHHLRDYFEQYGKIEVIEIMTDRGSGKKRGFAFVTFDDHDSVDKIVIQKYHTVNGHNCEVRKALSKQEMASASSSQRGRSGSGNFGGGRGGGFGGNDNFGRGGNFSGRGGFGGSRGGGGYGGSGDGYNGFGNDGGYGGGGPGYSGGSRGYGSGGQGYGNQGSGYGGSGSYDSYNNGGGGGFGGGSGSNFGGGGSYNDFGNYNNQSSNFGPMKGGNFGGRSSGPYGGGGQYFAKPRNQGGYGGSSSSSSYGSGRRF
UniProt Q99729, sequence (Q99729 whole entry): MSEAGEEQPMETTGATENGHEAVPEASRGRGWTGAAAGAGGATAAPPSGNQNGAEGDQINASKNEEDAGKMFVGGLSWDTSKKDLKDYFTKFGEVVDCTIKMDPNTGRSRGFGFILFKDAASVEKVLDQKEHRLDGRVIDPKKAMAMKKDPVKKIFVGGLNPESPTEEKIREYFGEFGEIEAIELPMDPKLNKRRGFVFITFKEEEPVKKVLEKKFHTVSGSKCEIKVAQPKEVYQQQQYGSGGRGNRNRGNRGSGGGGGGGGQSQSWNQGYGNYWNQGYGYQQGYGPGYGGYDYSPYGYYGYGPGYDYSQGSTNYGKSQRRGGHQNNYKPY
UniProt O75330, sequence (O75330 whole entry): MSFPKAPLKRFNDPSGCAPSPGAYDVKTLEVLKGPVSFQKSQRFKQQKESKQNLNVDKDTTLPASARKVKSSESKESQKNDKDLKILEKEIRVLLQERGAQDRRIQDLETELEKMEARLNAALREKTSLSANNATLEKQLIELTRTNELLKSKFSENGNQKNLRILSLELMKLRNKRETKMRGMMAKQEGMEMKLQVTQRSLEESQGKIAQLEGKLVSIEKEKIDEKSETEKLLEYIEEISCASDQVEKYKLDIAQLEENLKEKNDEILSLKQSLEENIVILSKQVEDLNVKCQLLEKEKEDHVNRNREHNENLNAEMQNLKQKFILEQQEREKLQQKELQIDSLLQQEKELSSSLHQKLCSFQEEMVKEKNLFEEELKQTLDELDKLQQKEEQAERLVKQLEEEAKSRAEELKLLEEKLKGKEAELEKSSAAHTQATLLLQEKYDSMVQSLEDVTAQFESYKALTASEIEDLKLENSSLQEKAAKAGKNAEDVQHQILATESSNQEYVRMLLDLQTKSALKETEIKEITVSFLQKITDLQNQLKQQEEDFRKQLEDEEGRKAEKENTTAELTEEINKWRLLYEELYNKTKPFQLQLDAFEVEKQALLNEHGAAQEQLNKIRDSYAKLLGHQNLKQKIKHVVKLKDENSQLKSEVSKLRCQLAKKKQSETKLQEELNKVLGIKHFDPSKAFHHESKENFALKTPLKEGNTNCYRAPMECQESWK
UniProt P30519, sequence (P30519 whole entry): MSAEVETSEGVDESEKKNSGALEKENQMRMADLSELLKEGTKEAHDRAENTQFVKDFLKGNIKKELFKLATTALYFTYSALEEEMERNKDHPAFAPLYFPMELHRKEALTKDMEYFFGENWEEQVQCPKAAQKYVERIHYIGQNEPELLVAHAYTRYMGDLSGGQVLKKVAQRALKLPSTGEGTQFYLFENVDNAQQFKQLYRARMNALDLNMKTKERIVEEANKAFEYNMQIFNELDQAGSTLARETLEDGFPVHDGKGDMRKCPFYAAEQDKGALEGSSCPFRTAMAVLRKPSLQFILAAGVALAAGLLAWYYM
UniProt P51991, sequence (P51991 whole entry): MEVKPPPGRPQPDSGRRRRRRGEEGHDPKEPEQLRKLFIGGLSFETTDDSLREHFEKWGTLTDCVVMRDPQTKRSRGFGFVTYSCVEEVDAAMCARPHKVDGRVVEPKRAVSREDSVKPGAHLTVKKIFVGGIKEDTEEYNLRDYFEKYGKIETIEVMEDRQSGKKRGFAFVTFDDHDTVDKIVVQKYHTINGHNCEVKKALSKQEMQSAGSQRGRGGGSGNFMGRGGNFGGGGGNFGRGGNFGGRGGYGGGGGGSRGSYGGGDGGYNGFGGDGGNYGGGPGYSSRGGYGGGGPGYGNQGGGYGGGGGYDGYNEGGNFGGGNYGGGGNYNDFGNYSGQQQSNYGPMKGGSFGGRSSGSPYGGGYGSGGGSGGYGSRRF
UniProt Q9UK76, sequence (Q9UK76 whole entry): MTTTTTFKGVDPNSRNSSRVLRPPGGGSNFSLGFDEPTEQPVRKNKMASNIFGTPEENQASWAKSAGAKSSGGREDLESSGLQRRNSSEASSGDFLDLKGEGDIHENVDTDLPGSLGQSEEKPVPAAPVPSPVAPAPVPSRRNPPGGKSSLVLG
UniProt Q14527, sequence (Q14527 whole entry): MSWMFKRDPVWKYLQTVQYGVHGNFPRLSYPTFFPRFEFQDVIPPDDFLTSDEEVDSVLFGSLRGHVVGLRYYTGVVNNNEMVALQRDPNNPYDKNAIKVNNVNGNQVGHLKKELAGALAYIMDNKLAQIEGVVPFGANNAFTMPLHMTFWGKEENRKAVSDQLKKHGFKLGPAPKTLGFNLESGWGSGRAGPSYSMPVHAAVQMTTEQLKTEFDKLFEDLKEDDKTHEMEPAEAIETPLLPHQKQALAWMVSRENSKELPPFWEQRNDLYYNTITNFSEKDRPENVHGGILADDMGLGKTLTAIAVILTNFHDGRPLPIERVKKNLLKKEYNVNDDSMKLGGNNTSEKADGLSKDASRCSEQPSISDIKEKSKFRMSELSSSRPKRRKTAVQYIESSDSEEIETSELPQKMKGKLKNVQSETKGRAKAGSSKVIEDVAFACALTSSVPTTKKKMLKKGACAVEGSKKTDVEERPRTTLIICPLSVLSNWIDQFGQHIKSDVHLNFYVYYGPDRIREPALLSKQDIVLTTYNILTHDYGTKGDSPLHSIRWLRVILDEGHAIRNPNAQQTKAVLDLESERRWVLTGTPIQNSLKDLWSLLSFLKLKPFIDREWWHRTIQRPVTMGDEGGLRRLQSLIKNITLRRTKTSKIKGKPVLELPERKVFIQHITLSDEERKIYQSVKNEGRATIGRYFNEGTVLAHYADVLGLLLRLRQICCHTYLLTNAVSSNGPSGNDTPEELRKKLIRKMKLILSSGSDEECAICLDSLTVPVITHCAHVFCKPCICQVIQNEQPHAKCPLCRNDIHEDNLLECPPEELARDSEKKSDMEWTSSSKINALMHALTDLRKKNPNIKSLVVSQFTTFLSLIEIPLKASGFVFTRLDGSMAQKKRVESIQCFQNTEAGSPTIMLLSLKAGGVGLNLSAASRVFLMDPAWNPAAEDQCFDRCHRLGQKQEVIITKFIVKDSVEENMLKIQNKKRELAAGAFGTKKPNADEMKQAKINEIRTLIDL
UniProt P50747, sequence (P50747 whole entry): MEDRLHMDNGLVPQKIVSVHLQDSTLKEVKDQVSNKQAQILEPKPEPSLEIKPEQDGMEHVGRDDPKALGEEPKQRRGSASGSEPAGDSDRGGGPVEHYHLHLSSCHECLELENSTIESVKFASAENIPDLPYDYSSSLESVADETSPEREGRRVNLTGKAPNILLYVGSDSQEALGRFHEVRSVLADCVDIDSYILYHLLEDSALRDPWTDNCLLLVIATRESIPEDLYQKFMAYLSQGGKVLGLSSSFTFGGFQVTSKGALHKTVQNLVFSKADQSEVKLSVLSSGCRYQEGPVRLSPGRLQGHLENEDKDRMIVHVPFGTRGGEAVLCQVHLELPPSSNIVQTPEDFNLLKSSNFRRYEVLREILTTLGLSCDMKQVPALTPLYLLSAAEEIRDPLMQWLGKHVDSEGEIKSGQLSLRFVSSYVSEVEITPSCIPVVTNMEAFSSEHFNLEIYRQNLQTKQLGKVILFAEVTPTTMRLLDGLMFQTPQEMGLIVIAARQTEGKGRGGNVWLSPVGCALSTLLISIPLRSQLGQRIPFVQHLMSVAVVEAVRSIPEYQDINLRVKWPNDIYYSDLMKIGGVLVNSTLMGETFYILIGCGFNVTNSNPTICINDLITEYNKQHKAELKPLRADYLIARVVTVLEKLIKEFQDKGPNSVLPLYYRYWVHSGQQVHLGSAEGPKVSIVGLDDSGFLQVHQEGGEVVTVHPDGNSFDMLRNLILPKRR
UniProt Q15651, sequence (Q15651 whole entry): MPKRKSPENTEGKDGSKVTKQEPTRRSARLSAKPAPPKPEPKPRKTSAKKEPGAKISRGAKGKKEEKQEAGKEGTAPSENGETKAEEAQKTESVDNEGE

Row | Target | thermal stability z-score [1] | thermal stability z-score [2, 3] | thermal stability z-score ([2]; arsenate co-treatment: none)
1 | HK1 (UniProt P19367) | 0.159 | 0.339 | 0.466
2 | HK2 (UniProt P52789) | 0.715 | -0.636 | -0.168
3 | HLA | -0.138 | -0.65 | -0.217
4 | HLCS (UniProt P50747) | -0.0791 | -1.26 | -0.885
5 | HLTF (UniProt Q14527) | -0.308 | -0.245 | -0.0608
6 | HM13 (UniProt Q8TCT9) | 0.759 | 0.0446 | -0.0484
7 | HMBS (UniProt P08397) | 0.0804 | 0.513 | 0.573
8 | HMCES (UniProt Q96FZ2) | -0.565 | 0.164 | 0.254
9 | HMG20A (UniProt Q9NP66) | 0.344 | 0.359 | -0.371
10 | HMG20B (UniProt Q9P0W2) | 0.0621 | -0.211 | -0.0202
11 | HMGA1 (UniProt P17096) | -0.692 | -0.361 | 0.993
12 | HMGB1 (UniProt P09429) | 0.309 | 0.26 | 0.59
13 | HMGB2 (UniProt P26583) | 0.175 | 0.55 | 0.687
14 | HMGB3 (UniProt O15347) | 0.0296 | 0.138 | 0.323
15 | HMGCL (UniProt P35914) | 5.41 | 1.01 | 0.651
16 | HMGCS1 (UniProt Q01581) | 0.164 | 1.34 | 0.0808
17 | HMGN1 (UniProt P05114) | -0.289 | 0.242 | 0.681
18 | HMGN2 (UniProt P05204) | 0.0894 | 1.04 | 0.752

Row | Target | thermal stability z-score [1] | thermal stability z-score [2, 3] | thermal stability z-score ([2]; arsenate co-treatment: none)
19 | HMGN3 (UniProt Q15651) | 0.493 | 1.36 | 0.402
20 | HMGN5 (UniProt P82970) | -0.172 | -0.141 | -0.134
21 | HMMR (UniProt O75330) | 0.594 | -0.103 | 0.233
22 | HMOX1 (UniProt P09601) | -0.107 | -0.0402 | -0.011
23 | HMOX2 (UniProt P30519) | 0.895 | 0.676 | 1.34
24 | HN1 (UniProt Q9UK76) | 0.518 | 1.68 | 1.13
25 | HN1L | 0.214 | 0.978 | 0.827
26 | HNRNPA0 (UniProt Q13151) | -0.778 | -1.04 | -0.776
27 | HNRNPA1 (UniProt P09651) | -1.94 | -1.06 | -1.24
28 | HNRNPA2B1 (UniProt P22626) | 0.0566 | 0.93 | 0.512
29 | HNRNPA3 (UniProt P51991) | -0.49 | 0.238 | 0.437
30 | HNRNPAB (UniProt Q99729) | -0.447 | 0.89 | 0.554
31 | HNRNPC (UniProt P07910) | 0.94 | 2.24 | 1.04
32 | HNRNPD (UniProt Q14103) | -0.562 | 0.285 | -0.223
33 | HNRNPDL (UniProt O14979) | -1.85 | 0.895 | 0.34
34 | HNRNPF (UniProt P52597) | -0.208 | -0.401 | -0.136
35 | HNRNPH1 (UniProt P31943) | -0.9 | -0.365 | 0.482
